According to PubChem BioAssay AID1259407 (Chemical Carcinogenesis Research Information System (CCRIS), 2018):
Activity calls are given as the source filed them. How the calls were made is not given here.

System: CCRIS mutagenicity, Ames/micronucleus/aberration tests
Test: CCRIS mutagenicity studies
[1] = Test System: AMES SALMONELLA TYPHIMURIUM, Strain/Indicator: TA98, Metabolic Activation: NONE, Method: PREINCUBATION
[2] = Test System: AMES SALMONELLA TYPHIMURIUM, Strain/Indicator: TA98, Metabolic Activation: RAT, LIVER, S-9, PCB, Method: PREINCUBATION
[3] = Test System: AMES SALMONELLA TYPHIMURIUM, Strain/Indicator: TA100, Metabolic Activation: NONE, Method: PREINCUBATION
[4] = Test System: AMES SALMONELLA TYPHIMURIUM, Strain/Indicator: TA100, Metabolic Activation: RAT, LIVER, S-9, PCB, Method: PREINCUBATION

Nc1ccc(Cc2ccc(N)cc2)cc1
mutagenic call (End Point: IN VIVO MICRONUCLEUS, Test System: PERIPHERAL BLOOD RETICULOCYTES, Species: RAT, Strain/Sex: FISHER 344 OR SD/MALE, Route: ORAL OR IP): inactive; negative | mutagenic call (Test System: AMES SALMONELLA TYPHIMURIUM, Strain/Indicator: TA97, Metabolic Activation: HAMSTER, LIVER, S-9, AROCLOR 1254 (10%), Method: PREINCUBATION): active; positive | mutagenic call (Test System: AMES SALMONELLA TYPHIMURIUM, Strain/Indicator: TA97, Metabolic Activation: NONE, Method: PREINCUBATION): inactive; negative | mutagenic call (Test System: AMES SALMONELLA TYPHIMURIUM, Strain/Indicator: TA98, Metabolic Activation: HAMSTER, LIVER, S-9, AROCLOR 1254 (10%), Method: PREINCUBATION): active; positive | mutagenic call [1]: inactive; negative | mutagenic call (Test System: AMES SALMONELLA TYPHIMURIUM, Strain/Indicator: TA98, Metabolic Activation: NONE, Method: STANDARD PLATE): inactive; negative | mutagenic call (Test System: AMES SALMONELLA TYPHIMURIUM, Strain/Indicator: TA98, Metabolic Activation: RAT, LIVER, S-9, AROCLOR 1254, Method: STANDARD PLATE): active; positive | mutagenic call [2]: active; positive | mutagenic call (Test System: AMES SALMONELLA TYPHIMURIUM, Strain/Indicator: TA98, Metabolic Activation: RAT, LIVER, S-9, PCB, Method: STANDARD PLATE): active; positive | mutagenic call (Test System: AMES SALMONELLA TYPHIMURIUM, Strain/Indicator: TA98, Metabolic Activation: RAT, LIVER, S-9, PHENOBARBITAL, Method: PREINCUBATION): inactive; negative | mutagenic call (Test System: AMES SALMONELLA TYPHIMURIUM, Strain/Indicator: TA100, Metabolic Activation: HAMSTER, LIVER, S-9, AROCLOR 1254 (10%), Method: PREINCUBATION): active; positive | mutagenic call [3]: inactive; negative | mutagenic call (Test System: AMES SALMONELLA TYPHIMURIUM, Strain/Indicator: TA100, Metabolic Activation: NONE, Method: STANDARD PLATE): inactive; negative | mutagenic call (Test System: AMES SALMONELLA TYPHIMURIUM, Strain/Indicator: TA100, Metabolic Activation: RAT, LIVER, S-9, AROCLOR 1254 (10%), Method: PREINCUBATION): active; positive | mutagenic call (Test System: AMES SALMONELLA TYPHIMURIUM, Strain/Indicator: TA100, Metabolic Activation: RAT, LIVER, S-9, AROCLOR 1254, Method: STANDARD PLATE): active; positive | mutagenic call [4]: active; positive | mutagenic call (Test System: AMES SALMONELLA TYPHIMURIUM, Strain/Indicator: TA100, Metabolic Activation: RAT, LIVER, S-9, PCB, Method: STANDARD PLATE): active; positive | mutagenic call (Test System: AMES SALMONELLA TYPHIMURIUM, Strain/Indicator: TA100, Metabolic Activation: RAT, LIVER, S-9, PHENOBARBITAL, Method: PREINCUBATION): active; positive | mutagenic call (Test System: AMES SALMONELLA TYPHIMURIUM, Strain/Indicator: TA1535, Metabolic Activation: HAMSTER, LIVER, S-9, AROCLOR 1254 (5 OR 30%), Method: PREINCUBATION): active; positive | mutagenic call (Test System: AMES SALMONELLA TYPHIMURIUM, Strain/Indicator: TA1535, Metabolic Activation: HAMSTER, LIVER, S-9, AROCLOR 1254 (10%), Method: PREINCUBATION): active; positive | mutagenic call (Test System: AMES SALMONELLA TYPHIMURIUM, Strain/Indicator: TA1535, Metabolic Activation: NONE, Method: PREINCUBATION): inactive; negative | mutagenic call (Test System: AMES SALMONELLA TYPHIMURIUM, Strain/Indicator: TA1535, Metabolic Activation: RAT, LIVER, S-9, AROCLOR 1254 (10%), Method: PREINCUBATION): inactive; negative | mutagenic call (Test System: E. COLI, Strain/Indicator: WP2 UVRA, Metabolic Activation: HAMSTER, LIVER, S-9, AROCLOR 1254, Method: STANDARD PLATE): inactive; negative | mutagenic call (Test System: E. COLI, Strain/Indicator: WP2 UVRA, Metabolic Activation: HAMSTER, LIVER, S-9, Method: STANDARD PLATE): inactive; negative | mutagenic call (Test System: E. COLI, Strain/Indicator: WP2 UVRA, Metabolic Activation: MOUSE, LIVER, S-9, AROCLOR 1254, Method: STANDARD PLATE): inactive; negative | mutagenic call (Test System: E. COLI, Strain/Indicator: WP2 UVRA, Metabolic Activation: MOUSE, LIVER, S-9, Method: STANDARD PLATE): inactive; negative | mutagenic call (Test System: E. COLI, Strain/Indicator: WP2 UVRA, Metabolic Activation: NONE, Method: STANDARD PLATE): inactive; negative | mutagenic call (Test System: E. COLI, Strain/Indicator: WP2 UVRA, Metabolic Activation: RAT, LIVER, S-9, AROCLOR 1254, Method: STANDARD PLATE): inactive; negative | mutagenic call (Test System: E. COLI, Strain/Indicator: WP2 UVRA, Metabolic Activation: RAT, LIVER, S-9, Method: STANDARD PLATE): inactive; negative | mutagenic call (Test System: UDS RAT HEPATOCYTES, Strain/Indicator: BROMODEOXYURIDINE INCORP, Metabolic Activation: NONE, Method: FLOW CYTOMETRIC ANALYSIS): inactive; negative | mutagenic call (Test System: UDS RAT HEPATOCYTES, Strain/Indicator: THY INCORP, Metabolic Activation: NONE, Method: AUTORADIOGRAPHY): inactive; negative

CCCc1cc(=O)oc2c3c(c4c(c12)OC(C)(C)C=C4)O[C@H](C)[C@@H](C)[C@H]3O
mutagenic call (Test System: Mouse lymphoma, Strain/Indicator: L5178Y (tk+/tk-), Metabolic Activation: None, Method: Suspension/plate): inactive; negative | mutagenic call (Test System: Mouse lymphoma, Strain/Indicator: L5178Y (tk+/tk-), Metabolic Activation: Rat, Liver, S-9, Aroclor 1254, Method: Suspension/plate): inactive; negative

O=C1c2ccccc2C(=O)c2c1ccc(O[C@@H]1O[C@H](CO[C@@H]3OC[C@@H](O)[C@H](O)[C@H]3O)[C@@H](O)[C@H](O)[C@H]1O)c2O
mutagenic call [1]: inactive; negative | mutagenic call [2]: inactive; negative | mutagenic call [3]: inactive; negative | mutagenic call [4]: inactive; negative | mutagenic call (Test System: UDS PRIMARY RAT HEPATOCYTES, Strain/Indicator: THY INCORP, Metabolic Activation: NONE): active; positive
